≈ marks a conversion by molar mass, not a printed value. Marks after values point to notes of the source that are not given here.
Experiments:
[1] = biological target: T1, M. tuberculosis RecA intein (Mycobacterium tuberculosis, UniProt P9WHJ3); type: biochemical
T1 sequence (P9WHJ3 with tags, fused parts or gaps): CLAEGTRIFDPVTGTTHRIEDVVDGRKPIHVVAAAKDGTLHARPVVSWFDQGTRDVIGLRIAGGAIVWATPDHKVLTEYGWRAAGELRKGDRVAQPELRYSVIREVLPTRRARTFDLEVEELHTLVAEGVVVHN

BCG = BCG MIC; type: cell-based
Mtu H37Rv [2] = experiment: Mtu H37Rv MIC; type: cell-based, M. tuberculosis
Mtu H37Rv [3] = experiment: Alamar Blue reduction inhibition measured by TAACF; type: cell-based, M. tuberculosis; conditions: Mycobacterium tuberculosis, at 6.25 μg/ml, as measured by TAACF

## Oc1cc2c(cc1C(c1ccc(Cl)c(Cl)c1)N1CCCC1)OCO2 (stereo not drawn) [Compound 1]
[1]
  IC50: 5 µM

## CCCN(CCC)S(=O)(=O)c1ccc(C(=O)SCC(=O)OCC)cc1 [Compound 2]
[1]
  IC50: 8 µM

## CS(=O)(=O)c1cc(C(F)(F)F)cc(S(C)(=O)=O)c1S(C)(=O)=O [Compound 3]
BCG
  BCG MIC: 20 µg/mL
[1]
  IC50: 10 µM
Mtu H37Rv [2]
  Mtu H37Rv MIC: 20^a μg/ml

## CC(=O)c1cc([N+](=O)[O-])c(Sc2ccc(Cl)cc2)s1 [Compound 4]
[1]
  IC50: 5 µM

## O=S(=O)(c1ccc(Br)cc1)c1snnc1-c1ccccc1 [Compound 6]
[1]
  IC50: 4 µM
Mtu H37Rv [3]
  inhibition at 6.25 µg/mL: 32%

## O=S(=O)(c1ccc(Cl)c(Cl)c1)c1snnc1-c1ccccc1 [Compound 7]
Mtu H37Rv [3]
  inhibition at 6.25 µg/mL: 96%

## O=C1CSC(c2ccc(Cl)cc2)C(=O)N1c1ccc(C(F)(F)F)cc1 (stereo not drawn) [Compound 8]
[1]
  IC50: 5 µM

## COc1ccc(NC(=O)C(Cl)=C(Cl)[S+]([O-])Cc2ccccc2)cn1 (stereo not drawn) [Compound 9]
BCG
  BCG MIC: 5 µg/mL
[1]
  IC50: 10 µM
Mtu H37Rv [2]
  Mtu H37Rv MIC: 5^d μg/ml

## O=C(Nc1ccccc1)c1nnsc1S(=O)(=O)c1ccc(Cl)cc1 [Compound 10]
[1]
  IC50: 8 µM

## O=C(c1nnsc1[S+]([O-])c1ccc(Cl)cc1)N1CCCCC1 (stereo not drawn) [Compound 11]
BCG
  BCG MIC: 5 µg/mL
[1]
  IC50: 4 µM
Mtu H37Rv [2]
  Mtu H37Rv MIC: 5 µg/mL

## O=C(Nc1ccc(F)cc1)c1nnsc1S(=O)(=O)c1ccc(Cl)cc1 [Compound 12]
BCG
  BCG MIC: 20 µg/mL
[1]
  IC50: 3 µM
Mtu H37Rv [2]
  Mtu H37Rv MIC: 10 µg/mL

## O=C(CCl)N1CCN2C(=O)c3ccccc3C12c1ccc(Cl)cc1 (stereo not drawn) [Compound 13]
BCG
  BCG MIC: 20 µg/mL
[1]
  IC50: 4 µM
Mtu H37Rv [2]
  Mtu H37Rv MIC: 10 µg/mL

## N#CC1(C#N)C(c2cccc(I)c2)C(C(N)=O)N2C=Cc3ccccc3C21 (stereo not drawn) [Compound 17]
[1]
  IC50: 20 µM

## N#CC1(C#N)C(c2ccccc2Cl)C1(C#N)C#N [Compound 21]
[1]
  IC50: 8 µM

## CSC(Nc1ccc(F)cc1)=C(C#N)C(=O)c1ccco1 [Compound 22]
[1]
  IC50: 3 µM
Mtu H37Rv [2]
  Mtu H37Rv MIC: 20 µg/mL

## O=C(Oc1ccc(Cl)cc1)c1snnc1-c1ccccc1 [Compound 23]
[1]
  IC50: 3 µM

## N#CCSc1ccc(C#N)cc1 [Compound 24]
[1]
  IC50: 11 µM
Mtu H37Rv [2]; Mycobacterium tuberculosis, H37RV
  MIC: 5 µg/mL (≈ 28.7 µM)

## C=CCn1c(Sc2ncnc3c2sc(=S)n3CC=C)nnc1-c1ccccc1 [Compound 27]
[1]
  IC50: 2 µM

## N#CC(N)=C(C#N)NCc1ccccc1Sc1ccc(Cl)cc1 [Compound 29]
[1]
  IC50: 30 µM

## CC1(C)CC(=O)c2c(S(C)(=O)=O)sc(C(=O)OCc3ccccc3)c2C1 [Compound 30]
BCG
  BCG MIC: 20 µg/mL
[1]
  IC50: 5 µM

## N#Cc1nccnc1S(=O)(=O)c1cccs1 [Compound 31]
BCG
  BCG MIC: 6 µg/mL
[1]
  IC50: 5 µM
Mtu H37Rv [2]
  Mtu H37Rv MIC: 10 µg/mL

## COC(=O)c1sc(S(C)(=O)=O)c(C#N)c1-c1cc(C(C)(C)C)oc1C [Compound 33]
[1]
  IC50: 4 µM

## O=S(=O)(c1cccc(C(F)(F)F)c1)c1snnc1-c1ccccc1 [Compound 35]
BCG; Mycobacterium tuberculosis variant bovis BCG, BCG, read-out: BCG MIC
  MIC: 20 µg/mL (≈ 54 µM)
[1]
  IC50: 1 µM

## O=S(=O)(Cc1cccc(C(F)(F)F)c1)c1snnc1-c1ccccc1 [Compound 36]
[1]
  IC50: 5 µM

## CC1(C)CC(=O)C2(C(=O)C1)C(c1ccc(Cl)cc1Cl)C2(C#N)C#N (stereo not drawn) [Compound 37]
[1]
  IC50: 5 µM

## O=C(OCn1ncc(Cl)c(Cl)c1=O)c1cccc(C(F)(F)F)c1 [Compound 38]
[1]
  IC50: 0.8 µM

## Cn1cc(C(=O)c2cccc(Cl)c2Cl)cc1C(=O)C(Cl)(Cl)Cl [Compound 40]
[1]
  IC50: 5 µM

## CCOC(=O)c1nnc(-c2ccccc2)nc1Sc1ccccc1C(=O)OC [Compound 41]
[1]
  IC50: 2 µM

## COc1ccc(NC(=O)C(Cl)=C(Cl)[S+]([O-])Cc2ccc(C)cc2)cn1 (stereo not drawn) [Compound 43]
BCG
  BCG MIC: 1 µg/mL
[1]
  IC50: 3 µM
Mtu H37Rv [2]
  Mtu H37Rv MIC: 2.5 µg/mL

## Oc1cc(OCc2ccc(C(F)(F)F)cc2)ccc1-c1cc[nH]n1 [Compound 44]
[1]
  IC50: 5 µM

## [O-][S+](c1ccc(C(F)(F)F)cc1)c1cnn2c(Cl)nnc2c1 (stereo not drawn) [Compound 45]
BCG
  BCG MIC: 5 µg/mL
[1]
  IC50: 5 µM
Mtu H37Rv [2]
  Mtu H37Rv MIC: 2.5 µg/mL

## COc1cccc(N(NC(=O)C(O)(c2cccc(C(F)(F)F)c2)c2cccc(C(F)(F)F)c2)C(=O)CCl)c1 [Compound 51]
[1]
  IC50: 2 µM

## O=C(Nn1c(C2CCCCC2)nc2ccccc2c1=O)c1cc([N+](=O)[O-])cc([N+](=O)[O-])c1Cl [Compound 53]
BCG
  BCG MIC: ~20 µg/mL
[1]
  IC50: 1 µM

## O=[N+]([O-])c1cc(C(F)(F)F)cc([N+](=O)[O-])c1Sc1nc2ccccc2[nH]1 [Compound 55]
BCG
  BCG MIC: 5 µg/mL
[1]
  IC50: 15 µM
Mtu H37Rv [2]
  Mtu H37Rv MIC: 20 µg/mL

## CCOC(=O)CSc1nc2c(c(-c3cccs3)c1C#N)CN(C)CC2 [Compound 56]
[1]
  IC50: < 35 µM

## O=C(CCl)c1ccc(Cc2ncc(C(F)(F)F)cc2Cl)s1 [Compound 57]
[1]
  IC50: < 5 µM

## O=C(c1c[nH]c(C(=O)C(Cl)(Cl)Cl)c1)c1cccc(Cl)c1Cl [Compound 59]
[1]
  IC50: < 5 µM

## O=C(c1c[nH]c(C(=O)C(Cl)(Cl)Cl)c1)c1ccc(Cl)cc1Cl [Compound 62]
[1]
  IC50: < 5 µM

## Cc1cc(Oc2c([N+](=O)[O-])cc(C(F)(F)F)cc2[N+](=O)[O-])ccc1Cl [Compound 64]
[1]
  IC50: 6 µM

## Cc1cc(S(=O)(=O)c2ccc(C(F)(F)F)cc2[N+](=O)[O-])c(Cl)cc1Cl [Compound 66]
BCG
  BCG MIC: >20 µg/mL
[1]
  IC50: < 5 µM

## CCOC(=O)c1cnc2c(F)ccc(F)c2c1Oc1cncc(Cl)c1 [Compound 67]
[1]
  IC50: < 5 µM

## O=C(Sc1ccccc1)c1ccc2ncsc2c1 [Compound 68]
[1]
  IC50: 8 µM

## Oc1cc2c(cc1C(c1ccc(C(F)(F)F)cc1)N1CCOCC1)OCO2 (stereo not drawn) [Compound 69]
[1]
  IC50: < 5 µM

## Oc1ccc(Br)cc1CNc1cccc(C(F)(F)F)c1 [Compound 70]
[1]
  IC50: 12 µM

## CCOC(=O)c1cc(C#N)c(Sc2nnc(SCC3CC3)s2)nc1C(F)(F)F [Compound 71]
BCG
  BCG MIC: 10 µg/mL
[1]
  IC50: < 5 µM
Mtu H37Rv [2]
  Mtu H37Rv MIC: 10 µg/mL

## CCOC(=O)c1cc(C#N)c(Sc2nnc(SC)s2)nc1C(F)(F)F [Compound 72]
BCG
  BCG MIC: 10 µg/mL
[1]
  IC50: < 5 µM
Mtu H37Rv [2]
  Mtu H37Rv MIC: 10 µg/mL

## c1ccc(-c2cnc3nonc3n2)cc1 [Compound 74]
[1]
  IC50: < 5 µM

## O=C(Oc1cc(OC(=O)c2ccco2)cc(OC(=O)c2ccco2)c1)c1ccco1 [Compound 75]
[1]
  IC50: < 5 µM

## O=C(Oc1ccc(Br)cc1)c1ccco1 [Compound 76]
[1]
  IC50: 8 µM

## O=C(Oc1ccc(C=Nc2ccc(F)cc2)cc1)c1ccco1 [Compound 77]
[1]
  IC50: 30 µM

## O=C(Oc1ccc(C=Nc2ccc(F)cc2)cc1)c1cccs1 [Compound 78]
[1]
  IC50: 13 µM

## Cc1nn(C(N)=S)c(O)c1C(c1cccc(Cl)c1Cl)C(C#N)C#N (stereo not drawn) [Compound 81]
[1]
  IC50: 12 µM

— patent US7553832B2, “Methods and compositions for specific inhibition of protein splicing by small molecules” (Boston Biomedical Research Institute, priority 2005, dated 2009)
